One test has as its target T1, PPAR-γ (Mus musculus, UniProt P37238).
T1 construct: endogenous in cells; host or cells: 3T3-L1 preadipocytes, differentiated for about 3 days with methyl isobutylxanthine, dexamethasone and insulin
T1 sequence (P37238 1-505): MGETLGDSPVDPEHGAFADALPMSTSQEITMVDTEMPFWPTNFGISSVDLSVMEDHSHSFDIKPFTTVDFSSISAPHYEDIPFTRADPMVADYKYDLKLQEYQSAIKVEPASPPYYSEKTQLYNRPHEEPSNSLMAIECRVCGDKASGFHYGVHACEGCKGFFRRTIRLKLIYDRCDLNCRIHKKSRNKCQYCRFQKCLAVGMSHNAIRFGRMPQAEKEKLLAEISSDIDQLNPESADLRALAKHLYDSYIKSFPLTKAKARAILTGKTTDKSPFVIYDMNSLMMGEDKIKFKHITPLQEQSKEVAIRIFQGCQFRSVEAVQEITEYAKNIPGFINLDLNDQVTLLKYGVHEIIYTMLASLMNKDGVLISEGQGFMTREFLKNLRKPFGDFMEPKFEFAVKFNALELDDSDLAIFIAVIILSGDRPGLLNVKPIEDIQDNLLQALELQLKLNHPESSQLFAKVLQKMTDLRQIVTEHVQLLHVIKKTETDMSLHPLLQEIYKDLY
The test is described as follows: 3T3-L1 transient reporter assay (AD3T3-L1 reporter). As to conditions: for EC50: 3T3-L1 cells, aP2 promoter luciferase reporter, 48 hours. It counts as cell-based, murine. The procedure:
This assay is used to determine the potential of putative PPAR-γ ligands to activate the promoter/enhancer of the murine aP2 gene. 3T3-L1 preadipocytes are cultured on collagen coated plates in DMEM containing 10% Calf serum for 48 hours post-confluence. The cells are then cultured for approximately 3 days in DMEM containing 10% Fetal Bovine Serum (FBS), 0.5-mM methyl isobutylxanthine, 0.25 μM dexamethasone, and 1 μg/ml of insulin. Cells are detached from the plates with Trypsin-EDTA and resuspended in Phosphate Buffered Saline (PBS).
The reporter construct used in this assay is comprised of the —5.4 Kb 5′ flanking region of the murine aP2 gene inserted into the cloning site of the TKpGL3 luciferase vector. Transfection efficiency is controlled by co-transfection of the reference plasmid CMV-β-galactosidase. The reporter construct and the reference plasmid are transiently co-transfected into the cells by electroporation. The transfected cells are plated into collagen coated 96-well plates and cultured overnight. Cells are then incubated for 48 hours with the test compounds and then harvested. The lysates are measured for luciferase and β-galactosidase activities using the Dual-Light® luciferase kit from Tropix on a EG&G Berthold MicroLumat LB96P luminometer.
(A reporter such as luciferase makes a cellular process visible.)

Test [1] has as its system Ob/Ob diabetic mouse model. Kind of test: Blood glucose measurement (Glucose Δ) in Ob/Ob diabetic mouse model. It counts as in vivo. The procedure:
Glucose is obtained 4 hours post dose via tail vein stick (5 μl whole blood) in awake, 4 hour fasted animals. Blood is drawn by capillary action into a glucose cuvette and read in a HemoCue Glucose Analyzer (Ryan Diagnostics). Blood is diluted 1:2 with saline if glucose levels are greater than 400 mg/dl (meter high range) and results multiplied by two.

Where [2] appears, read: 3T3-L1, maximal response relative to rosiglitazone, read-out: AD3T3-L1 Reporter Max. % Rosi (maximal response).

The structures appear in SMILES notation. Where two headings read alike, the source gives them in different places.

For the molecule `Cc1oc(-c2ccccc2)nc1CCCC#CCC(C(=O)O)n1cccc1` (stereo not drawn) [Example 1-11], on PPAR-γ (3T3-L1, read-out: AD3T3-L1 Reporter Max. % Rosi (maximal response)), the Emax was 108%. For the same molecule, at PPAR-γ, it took 89 nM to reach a half-maximal effect (EC50).
`Cc1oc(-c2ccccc2)nc1CCCC#CCC(C(=O)O)c1cccs1` (stereo not drawn) [Example 1-13, 8-(5-Methyl-2-phenyl-oxazol-4-yl)-2-thiophen-2-yl-oct-4-ynoic Acid]: at PPAR-γ (setting [2]), the Emax stood at 97%. Besides, on PPAR-γ, the EC50 (in general, the concentration giving half of the maximal effect) turned out to be 303 nM.
Turning to `Cc1oc(-c2ccccc2)nc1CCCC#CCC(C(=O)O)n1nccn1` (stereo not drawn) [Example 1-15, 8-(5-Methyl-2-phenyl-oxazol-4-yl)-2-[1,2,3]triazol-2-yl-oct-4-ynoic Acid], the “In VIVO Δ Glucose @ 20 mg/kg” value in test [1] (20 mg/kg, glucose 4 hours post dose) is -258 mg/dL. The “In VIVO % Rosiglitazone” value in test [1] (20 mg/kg, glucose change relative to rosiglitazone) is recorded as 180%. Further, in test [1] (Ob/Ob diabetic mouse, in 3 days at 20 mg/Kg), the “Blood glucose in Ob/Ob diabetic mouse model” value is reported as “Normalized blood glucose”. Besides, on PPAR-γ (setting [2]), the Emax came out at 103%. At PPAR-γ, this molecule yielded an EC50 of 15 nM.

Source of the values: patent US6696474B2, “Antidiabetic agents” (Warner Lambert Co. LLC., priority 2002, dated 2004).
